Our source for the IC50 values is patent publication US20120328569A1, “INHIBITORS OF HEPATITIS C VIRUS NS5B POLYMERASE” (priority 2010, published 2012).

The test system of this test is HCV genotype 1b replicon. In words: HCV replicon assay, cell ELISA with antibody to replicon-encoded NS3/4A (genotype 1b replicon). Conditions: Hepatitis C virus, 96 h, read-out: Replicon 1b IC50 (nM), HCV genotype 1b replicon cells, 96 hours incubation, NS3/4A ELISA readout. It counts as cell-based, hepatitis C virus. The procedure, abridged: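 An ELISA on lysed cells, using an antibody against NS3/4A protease, served as the proxy for replicon RNA. Cells had first been exposed for 96 h to serially diluted compound in G418-free conditions. Percent of DMSO control was fitted with a four-parameter function to give IC50.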
In general terms: In antiviral work, replicon cells carry a viral genome segment that copies itself.
With `CNC(=O)c1c(-c2ccc(F)cc2)oc2cc(N(C)S(C)(=O)=O)c(-c3cccc(-c4nc5ncncc5o4)c3)cc12` [Example 241], the IC50 came to 9.5 nM. On to `CNC(=O)c1c(-c2ccc(F)cc2)oc2cc(N(C)S(C)(=O)=O)c(-c3cccc(-c4nc5cncnc5o4)c3)cc12` [Example 242], for which the IC50 was found to be 4.8 nM.

In the case of `CNC(=O)c1c(-c2ccc(F)cc2)oc2cc(N(C)S(C)(=O)=O)c(-c3cc(F)c(F)c(-c4nc5ncccc5o4)c3)cc12` [Example 243], the IC50 was 1.3 nM.

In the case of `CNC(=O)c1c(-c2ccc(F)cc2)oc2cc(N(C)S(C)(=O)=O)c(-c3cc(F)c(F)c(-c4nc5cccnc5o4)c3)cc12` [Example 244], the IC50 came to 1.3 nM. On to `CNC(=O)c1c(-c2ccc(F)cc2)oc2cc(N(C)S(C)(=O)=O)c(-c3cc(F)cc(-c4nc5cccnc5s4)c3)cc12` [Example 245], for which the IC50 worked out at 2 nM.

On to `CNC(=O)c1c(-c2ccc(F)cc2)oc2cc(N(C)S(C)(=O)=O)c(-c3ccc(F)c(-c4nc5cccnc5s4)c3)cc12` [Example 246], for which the IC50 turned out to be 3.6 nM. With `CNC(=O)c1c(-c2ccc(F)cc2)oc2cc(N(C)S(C)(=O)=O)c(-c3cc(OC)cc(-c4nc5cccnc5s4)c3)cc12` [Example 249] the figure was 2.2 nM; with `CNC(=O)c1c(-c2ccc(F)cc2)oc2cc(N(C)S(C)(=O)=O)c(-c3cc(-c4nc5cccnc5s4)ccc3OC)cc12` [Example 250], 5.1 nM. On to `CNC(=O)c1c(-c2ccc(F)cc2)oc2cc(N(C)S(C)(=O)=O)c(-c3cccc(-c4nc5ccc(OC)nc5s4)c3)cc12` [Example 251], for which the IC50 is 4 nM. As for `CNC(=O)c1c(-c2ccc(F)cc2)oc2cc(N(C)S(C)(=O)=O)c(-c3cccc(-c4nc5ccc(=O)[nH]c5s4)c3)cc12` [Example 252], the IC50 stood at 78.2 nM.

In the case of `CNC(=O)c1c(-c2ccc(F)cc2)oc2cc(N(C)S(C)(=O)=O)c(-c3ccc(F)c(-c4nc5ncccc5s4)c3)cc12` [Example 260], the IC50 was 3.7 nM. As to `CNC(=O)c1c(-c2ccc(F)cc2)oc2cc(N(C)S(C)(=O)=O)c(-c3cccc(-c4nc5ncc(Cl)cc5s4)c3)cc12` [Example 261], the IC50 stood at 2 nM.

For the molecule `CNC(=O)c1c(-c2ccc(F)cc2)oc2cc(N(C)S(C)(=O)=O)c(-c3cccc(-c4nc5cnccc5s4)c3)cc12` [Example 262], the IC50 was found to be 5 nM. Regarding `CNC(=O)c1c(-c2ccc(F)cc2)oc2cc(N(C)S(C)(=O)=O)c(-c3cccc(-c4nc5ccncc5s4)c3)cc12` [Example 264], the IC50 was 2.9 nM. Consider `CNC(=O)c1c(-c2ccc(F)cc2)oc2cc(N(C)S(C)(=O)=O)c(-c3ccc(OC)c(-c4nc5cccnc5s4)c3)cc12` [Example 271], for which the IC50 is 1.5 nM. As to `CNC(=O)c1c(-c2ccc(F)cc2)oc2cc(N(C)S(C)(=O)=O)c(-c3cccc(-c4nc5nccnc5s4)c3)cc12` [Example 272], the IC50 was determined as 3 nM.

With `CNC(=O)c1c(-c2ccc(F)cc2)oc2cc(N(C)S(C)(=O)=O)c(-c3cccc(-c4nc5cncnc5s4)c3)cc12` [Example 273], the IC50 is 2.2 nM. In the case of `CNC(=O)c1c(-c2ccc(F)cc2)oc2cc(N(C)S(C)(=O)=O)c(-c3cccc(-c4nc5c(F)cccc5s4)c3)cc12` [Example 278], the IC50 stood at 3.2 nM.

Take `CNC(=O)c1c(-c2ccc(F)cc2)oc2cc(N(C)S(C)(=O)=O)c(-c3cccc(-c4nc5cccc(F)c5s4)c3)cc12` [Example 279]: the IC50 came out at 3.2 nM. Under `CNC(=O)c1c(-c2ccc(F)cc2)oc2cc(N(C)S(C)(=O)=O)c(-c3cccc(-c4nc5ccc(NS(C)(=O)=O)cc5o4)c3)cc12` [Example 281, 2-(4-fluorophenyl)-N-methyl-6-(N-methylmethylsulfonamido)-5-(3-(6-(methylsulfonamido)benzo[d]oxazol-2-yl)phenyl)benzofuran-3-carboxamide] stands 3.3 nM. As for `CNC(=O)c1c(-c2ccc(F)cc2)oc2cc(N(C)S(C)(=O)=O)c(-c3cccc(-c4nc5ccc(NC(C)=O)cc5o4)c3)cc12` [Example 282], the IC50 is 2.3 nM.

As to `CNC(=O)c1c(-c2ccc(F)cc2)oc2cc(N(C)S(C)(=O)=O)c(-c3cccc(-c4nc5ccc(NC(=O)c6ccccc6)cc5o4)c3)cc12` [Example 283], the IC50 worked out at 17.2 nM. Consider `CNC(=O)c1c(-c2ccc(F)cc2)oc2cc(N(C)S(C)(=O)=O)c(-c3cccc(-c4nc5ccc(NS(=O)(=O)c6ccccc6)cc5o4)c3)cc12` [Example 284], for which the IC50 was determined as 5.3 nM. In the case of `CNC(=O)c1c(-c2ccc(F)cc2)oc2cc(N(C)S(C)(=O)=O)c(-c3cccc(-c4nc5ccc(NC(=O)[C@@H]6CCCN6C(=O)OC(C)(C)C)cc5o4)c3)cc12` [Example 285], the IC50 was 10.2 nM. With `CNC(=O)c1c(-c2ccc(F)cc2)oc2cc(N(C)S(C)(=O)=O)c(-c3cccc(-c4nc5cc(NS(=O)(=O)c6ccccc6)ccc5o4)c3)cc12` [Example 286] the figure was 5.8 nM. Consider `CNC(=O)c1c(-c2ccc(F)cc2)oc2cc(N(C)S(C)(=O)=O)c(-c3cc(F)cc(-c4nc5ccccc5s4)c3)cc12` [Example 289], for which the IC50 came to 5.4 nM. `CNC(=O)c1c(-c2ccc(F)cc2)oc2cc(N(C)S(C)(=O)=O)c(-c3cc(-c4nc5ccccc5s4)ccc3F)cc12` [Example 290]: the IC50 was 6.9 nM. Under `CNC(=O)c1c(-c2ccc(F)cc2)oc2cc(N(C)S(C)(=O)=O)c(-c3cccc(-c4nc5cc(F)ccc5s4)c3)cc12` [Example 292] stands 5.9 nM; under `CNC(=O)c1c(-c2ccc(F)cc2)oc2cc(N(C)S(C)(=O)=O)c(-c3ccc(F)c(-c4nc5ccc(F)cc5s4)c3)cc12` [Example 293], 8.6 nM. Turning to `CNC(=O)c1c(-c2ccc(F)cc2)oc2cc(N(C)S(C)(=O)=O)c(-c3ccc(F)c(-c4nc5ccc(C)cc5s4)c3)cc12` [Example 294], the IC50 was found to be 10 nM. With `CNC(=O)c1c(-c2ccc(F)cc2)oc2cc(N(C)S(C)(=O)=O)c(-c3cccc(-c4nc5cccc(C#N)c5s4)c3)cc12` [Example 295] the figure was 4.1 nM. As to `CNC(=O)c1c(-c2ccc(F)cc2)oc2cc(N(C)S(C)(=O)=O)c(-c3ccc(F)c(-c4nc5ccccc5s4)c3F)cc12` [Example 296], the IC50 turned out to be 64.1 nM.

As for `CNC(=O)c1c(-c2ccc(F)cc2)oc2cc(N(C)S(C)(=O)=O)c(-c3cccc(-c4nc5ccc(CN)cc5s4)c3)cc12` [Example 297, 5-(3-(6-(aminomethyl)benzo[d]thiazol-2-yl)phenyl)-2-(4-fluorophenyl)-N-methyl-6-(N-methylmethylsulfonamido)benzofuran-3-carboxamide], the IC50 came to 20.5 nM.

As for `CNC(=O)c1c(-c2ccc(F)cc2)oc2cc(N(C)S(C)(=O)=O)c(-c3cccc(-c4nc5ccc(CN(C)C)cc5s4)c3)cc12` [Example 298, 5-(3-(6-((dimethylamino)methyl)benzo[d]thiazol-2-yl)phenyl)-2-(4-fluorophenyl)-N-methyl-6-(N-methylmethylsulfonamido)benzofuran-3-carboxamide], the IC50 came out at 6 nM. Consider `CNC(=O)c1c(-c2ccc(F)cc2)oc2cc(N(C)S(C)(=O)=O)c(-c3cccc(-c4nc5cccnc5[nH]4)c3)cc12` [Example 299, 5-(3-(3H-imidazo[4,5-b]pyridin-2-yl)phenyl)-2-(4-fluorophenyl)-N-methyl-6-(N-methylmethylsulfonamido)benzofuran-3-carboxamide], for which the IC50 was found to be 3.3 nM.

As to `CNC(=O)c1c(-c2ccc(F)cc2)oc2cc(N(C)S(C)(=O)=O)c(-c3ccc(F)c(-c4nc5ccccc5[nH]4)c3)cc12` [Example 300], the IC50 is 1.5 nM.

As for `CNC(=O)c1c(-c2ccc(F)cc2)oc2cc(N(C)S(C)(=O)=O)c(-c3ccc(F)c(-c4nc5cc(F)ccc5[nH]4)c3)cc12` [Example 301], the IC50 was found to be 1.9 nM. Under `CNC(=O)c1c(-c2ccc(F)cc2)oc2cc(N(C)S(C)(=O)=O)c(-c3ccc(F)c(-c4nc5cc(C)ccc5[nH]4)c3)cc12` [Example 302] stands 3.1 nM; under `CNC(=O)c1c(-c2ccc(F)cc2)oc2cc(N(C)S(C)(=O)=O)c(-c3cccc(-c4nc5c(C)cccc5[nH]4)c3)cc12` [Example 303], 1.8 nM; under `CNC(=O)c1c(-c2ccc(F)cc2)oc2cc(N(C)S(C)(=O)=O)c(-c3cccc(-c4nc5c(F)cccc5[nH]4)c3)cc12` [Example 304], 1.3 nM. With `CNC(=O)c1c(-c2ccc(F)cc2)oc2cc(N(C)S(C)(=O)=O)c(-c3cc(F)cc(-c4nc5cccnc5[nH]4)c3)cc12` [Example 305] the figure was 1.1 nM. In the case of `CNC(=O)c1c(-c2ccc(F)cc2)oc2cc(N(C)S(C)(=O)=O)c(-c3cc(F)cc(-c4nc5ccc(OC)nc5[nH]4)c3)cc12` [Example 306], the IC50 is 28.8 nM. For the molecule `CNC(=O)c1c(-c2ccc(F)cc2)oc2cc(N(C)S(C)(=O)=O)c(-c3cc(F)cc(-c4nc5c(C)ccnc5[nH]4)c3)cc12` [Example 307], the IC50 was 2.4 nM.

With `CNC(=O)c1c(-c2ccc(F)cc2)oc2cc(N(C)S(C)(=O)=O)c(-c3ccc(F)c(-c4nc5cccnc5[nH]4)c3)cc12` [Example 308], the IC50 came to 2.5 nM. On to `CNC(=O)c1c(-c2ccc(F)cc2)oc2cc(N(C)S(C)(=O)=O)c(-c3ccc(F)c(-c4nc5ccc(OC)nc5[nH]4)c3)cc12` [Example 309], for which the IC50 came to 3.7 nM. Take `CNC(=O)c1c(-c2ccc(F)cc2)oc2cc(N(C)S(C)(=O)=O)c(-c3ccc(F)c(-c4nc5c(C)ccnc5[nH]4)c3)cc12` [Example 310]: the IC50 was 1.8 nM. Take `CNC(=O)c1c(-c2ccc(F)cc2)oc2cc(N(C)S(C)(=O)=O)c(-c3ccc(F)c(-c4nc5cc(Cl)cnc5[nH]4)c3)cc12` [Example 311]: the IC50 was determined as 1.7 nM. In the case of `CNC(=O)c1c(-c2ccc(F)cc2)oc2cc(N(C)S(C)(=O)=O)c(-c3ccc(OC)c(-c4nc5cccnc5[nH]4)c3)cc12` [Example 312], the IC50 was 1.1 nM.

On to `CNC(=O)c1c(-c2ccc(F)cc2)oc2cc(N(C)S(C)(=O)=O)c(-c3cc(OC)cc(-c4nc5cccnc5[nH]4)c3)cc12` [Example 314], for which the IC50 was found to be 1.5 nM. On to `CNC(=O)c1c(-c2ccc(F)cc2)oc2cc(N(C)S(C)(=O)=O)c(-c3cc(OC)cc(-c4nc5ccc(OC)nc5[nH]4)c3)cc12` [Example 315], for which the IC50 stood at 4.5 nM.
